Reference: US7446122B2, “Substituted indole derivatives” (Cephalon, Inc., priority 2003, dated 2008)
pIC50: −log10 of the molar value.

Tests used:
[1] = test system: Cyclin D1 protein in LNCaP cells; assay: Western blot of Cyclin D1 protein in LNCaP cell lysates; format: cell-based; settings: LNCaP cell lysates from treated cells
[2] = test system: cyclin D1 transcripts in LNCaP cells; assay: Cyclin D1 transcript expression by quantitative PCR in LNCaP cells; format: cell-based; settings: 24 hours, compound 42 (50 μM), compound 36 (100 μM), compound 1 (20 μM), normalized to 18s, FIG. 2
Description: Cyclin D1 Transcript Expression Levels as measured by quantitative PCR assay. LNCaP cells were cultured at 37° C., 5% CO2 for 24 hours untreated or in the presence of R-etodolac (200 μM), compound 42 (50 μM), compound 36 (100 μM), or compound 1 (20 μM) (see Table II for structures). Cells were harvested by trypsinization, washed with PBS, and stored at −80° C. Total cellular RNA was prepared from cell pellets using the RNEasy® Mini kit (Qiagen, Inc., Valencia, Calif.). RNA was quantified by spectrophotometer. Approximately 2 μg of RNA was used to prepare cDNA using the ThermoScript™ RT-PCR System (Invitrogen, Carlsbad, Calif.).
The levels of cyclin D1 transcripts in the cDNA samples were measured using a quantitative PCR (qPCR) assay specific for cyclin D1. The cyclin D1 transcript was amplified using the following primer pair:
The cyclin D1 primers are described in a manuscript from Takayasu et al. (2001 Clin. Cancer Res. 7:901-908). All assays were performed in duplicate. All qPCR assays were performed and analyzed using a Bio-Rad iCycler (Bio-Rad, Hercules, Calif.). The levels of cyclin D1 transcripts were normalized for total input cDNA by performing a separate assay to detect the levels of a housekeeping gene (18s) using the following primer pair:
The samples were normalized for 18s transcript levels using the method of Livak et al. (2001 Methods 25:402-408). The level of cyclin D1 transcripts in the control sample was set to 1. FIG. 2 represents the averaged normalized cyclin D1 transcripts±standard deviation for three independent experiments (two independent experiments for compound 1).

[3] = test system: primary CLL cells; assay: Cell cytotoxicity, MTT assay, primary CLL cells; format: cell-based; settings: 72 h, three days incubation
Description: (§1) Normal prostate cells (PREC, Cambrex East Rutherford N.J.), prostate cancer cell line (LNCaP, ATCC), PBL (peripheral blood leukocytes-buffy coat San Diego Blood Bank), and primary CLL cells were incubated for one to two days in RPMI-1640 and 10% FBS (fetal bovine serum). They were plated in 96-well plates at 100,000 cells/well. Titrated concentrations of the compound to be tested were added to the culture medium. The cells were incubated three days at 37° C., 5% CO2. Viability of the cells was assayed by standard MTT assay. Each drug concentration was done in duplicate. MTT assay: 10 μl of 12 mM 3,[4,5-dimethylthiazol-2-yl]-2,5-diphenyltetrazolium bromide (MTT) (SIGMA) was added to each well. The cells were incubated at 37° C., 5% CO2 for 4 hours. 100 μl of 20% SDS, 0.015M HCl was added to each well and the cells were incubated overnight. The plates were read at absorbance 595 nm.

[4] = test system: prostate cancer cell line (LNCaP); assay: Cell cytotoxicity, MTT assay, LNCaP; format: cell-based; settings: Homo sapiens, 72 h, three days incubation
Description: as §1

[5] = test system: Daudi human Burkitt Lymphoma derived tumors; assay: Daudi lymphoma murine xenograft model, efficacy; format: in vivo, male SCID mice; settings: for mean tumor volume at termination of the study: p.o. in sesame oil, compound 47 250, compound 36 (printed 26) 250, compound 1 125, R-etodolac 400 mg/kg/d, control 1583 mm^3; for 4× Growth: time for the tumors to grow to 4× the initial volume at dosing, control 8.9 d; for 8× Growth: time for the tumors to grow to 8× the initial volume at dosing, control 14.5 d
Description: Male SCID mice, 6-8 weeks of age, obtained from Simonsen Laboratories, Inc. (Gilroy, Calif.) were housed in groups of five.
The Daudi human Burkitt Lymphoma cells were obtained from American Type Culture Collection and were inoculated subcutaneously (1.0×10^7 cells/mouse) on the flanks of SCID mice. After the tumors reached approximately 100 mm^3 treatment was initiated.
Body weights and tumor volume of all mice were measured and recorded twice weekly. Tumors were measured in three dimensions and volume calculated using the formula: […]. Time for the tumors (days) to grow to 4× and 8× the initial volume at dosing were assessed. Study compounds were administered at 125 or 250 mg/kg/day (M-F) via oral gavage until the end of the study.
The efficacy of chlorambucil (2 and 3 mg/kg/d), (R-etodoalc) (400 mg/kg/d) and compound 47 (250 mg/kg/d), compound 26 (250 mg/kg/d), and compound 1 (125 mg/kg/d) against Daudi derived tumors in male SCID mice were studied. R-etodolac and compounds 1, 26 and 47 were prepared in sesame oil. Both chlorambucil (ip, 0.1 ml) and compounds of the invention (per os [p.o.], 0.31 ml) were dosed daily (Monday to Friday) for two weeks. SDX-101 (0.31 ml) was dosed p.o. daily until the end of the study. […] However, all treated mice recovered after Day 2 and maintained their weights. There was no body weight loss observed in other treatment groups. At termination of the study, the control group mean tumor volume was 1583 mm^3. The mean tumor volume of chlorambucil treated groups were 864 and 766 mm^3 with 2 and 3 mg/kg/d chlorambucil treatment, respectively. The mean tumor volume of R-etodolac and compounds 1, […] and 47 were 802, 996, 1011, and 1157 mm^3 with compounds 47, 36, 1 and R-etodolac treatment, respectively. […] At termination of the study, tumor samples along with liver, kidney, and spleen samples from each group were collected and fixed in 10% buffered formalin for histopathology.

[6] = test system: Normal prostate cells (PREC); assay: Cell cytotoxicity, MTT assay, PREC; format: cell-based; settings: Homo sapiens, 72 h, three days incubation
Description: as §1

[7] = molecular target: T1, Cyclooxygenase-2 (human recombinant, expressed in Sf9 cell) (Homo sapiens, UniProt P35354); assay: Cox-2 assay: human recombinant cyclooxygenase-2, PGE2 by EIA; format: biochemical; settings: human recombinant enzyme; for IC50: 0.3 μM arachidonic acid, PGE2; for inhibition at 10 µM: compounds are screened at 10 μM
T1 construct: purchased Cayman 60122; host or cells: Sf9 cell
T1 sequence (P35354 18-604): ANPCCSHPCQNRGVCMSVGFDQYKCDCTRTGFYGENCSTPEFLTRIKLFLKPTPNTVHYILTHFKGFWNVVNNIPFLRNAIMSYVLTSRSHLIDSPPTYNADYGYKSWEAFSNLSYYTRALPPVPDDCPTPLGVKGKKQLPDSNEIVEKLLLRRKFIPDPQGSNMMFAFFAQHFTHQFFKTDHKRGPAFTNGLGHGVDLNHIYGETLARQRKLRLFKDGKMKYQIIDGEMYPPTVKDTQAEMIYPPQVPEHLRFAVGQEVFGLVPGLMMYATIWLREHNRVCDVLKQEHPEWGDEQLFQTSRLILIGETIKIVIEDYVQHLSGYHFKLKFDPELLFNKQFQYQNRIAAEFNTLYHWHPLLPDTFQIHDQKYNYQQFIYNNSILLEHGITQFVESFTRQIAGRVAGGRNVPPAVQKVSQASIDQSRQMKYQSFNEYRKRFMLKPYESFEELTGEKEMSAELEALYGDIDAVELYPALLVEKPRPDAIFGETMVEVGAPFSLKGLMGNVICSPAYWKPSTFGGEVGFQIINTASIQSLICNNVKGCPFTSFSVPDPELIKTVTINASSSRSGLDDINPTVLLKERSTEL
Description: Test compound and/or vehicle is pre-incubated with 0.11 U cyclooxygenase-2, 1 mM reduced glutathione (GSH), 500 μM phenol and 1 μM hematin for 15 minutes at 37° C. The reaction is initiated by addition of 0.3 μM arachidonic acid as substrate in Tris-HCl pH 7.7 and terminated after a 5 minute incubation at 37° C. by addition of 1N HCl. Following centrifugation, substrate conversion to PGE2 is measured by an Amersham EIA kit. Compounds are screened at 10 μM. […] J. Physiol.

[8] = molecular target: T2, COX-1 (Homo sapiens, UniProt P23219); assay: Cox-1 assay: PGE2 formation in human platelets; format: cell-based; settings: for IC50: arachidonic acid 100 μM, PGE2; for inhibition at 10 µM: compounds are screened at 10 μM
T2 construct: endogenous in cells; host or cells: human platelets
Description: Test compound and/or vehicle is incubated with human platelets (10^8/ml) containing the phospholipase inhibitor MLnFP (100 μM) for 15 minutes at 37° C. Arachidonic acid (100 μM) is then added for a further 15 minute incubation period. The reaction is stopped by addition of 1 N HCl and neutralized with 1N NaOH. PGE2 levels in the supernatant are determined using the Amersham EIA kit. […]

[9] = test system: PBL (peripheral blood leukocytes); assay: Cell cytotoxicity, MTT assay, PBL; format: cell-based; settings: Leukocyte, 72 h, three days incubation
Description: as §1

T2 sequence (P23219 24-599): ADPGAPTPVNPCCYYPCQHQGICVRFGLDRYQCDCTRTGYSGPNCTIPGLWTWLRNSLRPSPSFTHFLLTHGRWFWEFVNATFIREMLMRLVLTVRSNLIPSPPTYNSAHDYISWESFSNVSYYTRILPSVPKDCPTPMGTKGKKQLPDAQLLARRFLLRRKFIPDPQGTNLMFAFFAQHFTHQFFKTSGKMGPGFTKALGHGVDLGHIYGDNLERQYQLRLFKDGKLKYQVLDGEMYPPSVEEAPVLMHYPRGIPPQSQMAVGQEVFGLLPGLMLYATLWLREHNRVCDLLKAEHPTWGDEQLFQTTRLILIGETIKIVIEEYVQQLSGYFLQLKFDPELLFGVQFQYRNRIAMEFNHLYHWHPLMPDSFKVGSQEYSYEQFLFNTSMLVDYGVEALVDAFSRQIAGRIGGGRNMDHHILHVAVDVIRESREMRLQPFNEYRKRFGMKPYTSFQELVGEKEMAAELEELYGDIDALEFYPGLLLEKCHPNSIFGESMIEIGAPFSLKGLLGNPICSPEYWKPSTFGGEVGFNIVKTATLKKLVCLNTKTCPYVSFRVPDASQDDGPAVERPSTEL

SMILES | IC50 [7] [µM] | inhibition at 10 µM [7] [%] | IC50 [8] [µM] | inhibition at 10 µM [8] [%] | melting point [°C] | Cyclin D1 protein expression (Western blot) [1] | cyclin D1 mRNA expression [2] | pIC50 [3] | pIC50 [4] | mean tumor volume at termination of the study [5] [mm^3] | 4× Growth [5] [days] | 8× Growth [5] [days] | pIC50 [6] | pIC50 [9]
CCc1cc(-c2ccccc2)cc2c3c([nH]c12)C(CC)(CCO)OCC3 (stereo not drawn) [Compound 1, 2-(1,8-DIETHYL-6-PHENYL-1,3,4,9-TETRAHYDRO-PYRANO[3,4-b]INDOL-1-YL)-ETHANOL] | < 10 | 100 | < 10 | 96 |  | reduced Cyclin D1 protein expression | inhibit cyclin D1 mRNA expression | 4.14 | 4.85 | 1011 | 15.8 | 21.1 | 4.28 | 4.12
CCC1(CCO)OCCc2c1[nH]c1ccc(C)cc21 (stereo not drawn) [Compound 24, 2-(1-ETHYL-6-METHYL-1,3,4,9-TETRAHYDRO-PYRANO[3,4-b]INDOL-1-YL)-ETHANOL] |  |  |  |  | 114 to 115 |  |  |  | 4.10 |  |  |  |  | 
CCC1(CCO)OCCc2c1[nH]c1ccc(Br)cc21 (stereo not drawn) [Compound 42, 2-(6-BROMO-1-ETHYL-1,3,4,9-TETRAHYDRO-PYRANO[3,4-b]INDOL-1-YL)-ETHANOL] |  |  |  |  |  | reduced Cyclin D1 protein expression | inhibit cyclin D1 mRNA expression |  | 4.92 |  |  |  |  | 
CCC1(CCO)OCCc2c1[nH]c1c(Cl)cc(Cl)cc21 (stereo not drawn) [Compound 46, 2-(6,8-DICHLORO-1-ETHYL-1,3,4,9-TETRAHYDRO-PYRANO[3,4-b]INDOL-1-YL)-ETHANOL] |  |  |  |  |  |  |  |  | 4.74 |  |  |  |  | 4.70
CCc1cccc2c3c([nH]c12)C(CC)(CC(=O)O)OCC3 (stereo not drawn) [Etodolac, reference compound] | > 300 | -14 |  |  |  |  |  | 3.70 | 3.91 |  |  |  | 3.38 | 3.46
CCc1cccc2c3c([nH]c12)[C@@](CC)(CC(=O)O)OCC3 [R-etodolac, reference compound] |  |  |  |  |  | reduced Cyclin D1 protein expression |  |  |  | 1157 | 11 | 17 |  | 

More lines, main results first:

IC50 [7] [µM] | inhibition at 10 µM [7] [%] | IC50 [8] [µM] | inhibition at 10 µM [8] [%] | melting point [°C] | SMILES | Cyclin D1 protein expression (Western blot) [1] | cyclin D1 mRNA expression [2] | pIC50 [3] | pIC50 [4] | mean tumor volume at termination of the study [5] [mm^3] | 4× Growth [5] [days] | 8× Growth [5] [days] | pIC50 [6] | pIC50 [9]
 |  |  |  | 68 | CCC1(CCO)OCCc2c1[nH]c1c(C)cccc21 (stereo not drawn) [Compound 25, 2-(1-ETHYL-8-METHYL-1,3,4,9-TETRAHYDRO-PYRANO[3,4-b]INDOL-1-YL)-ETHANOL] |  |  |  | 4.22 |  |  |  |  | 
> 300 | 3 | > 300 | 24 |  | CCC1(CCO)OCCc2c1[nH]c1c(Cl)cccc21 (stereo not drawn) [Compound 27, 2-(8-CHLORO-1-ETHYL-1,3,4,9-TETRAHYDRO-PYRANO[3,4-b]INDOL-1-YL)-ETHANOL] |  |  | 4.28 | 4.28 |  |  |  | 3.85 | 3.82
> 300 | -10 | > 300 | -69 |  | CCc1cccc2c3c([nH]c12)[C@@](CC)(CCO)OCC3 [Compound 35, R-2-(1,8-DIETHYL-1,3,4,9-TETRAHYDRO-PYRANO[3,4-b]INDOL-1-YL)-ETHANOL] |  |  | 4.00 | 4.17 |  |  |  | 3.66 | 3.85
> 300 | 18 | > 300 | -4 |  | CCC1(CCO)OCCc2c1[nH]c1c(C(C)C)cccc21 (stereo not drawn) [Compound 36, 2-(1-ETHYL-8-ISOPROPYL-1,3,4,9-TETRAHYDRO-PYRANO[3,4-b]INDOL-1-YL)-ETHANOL] | reduced Cyclin D1 protein expression | inhibit cyclin D1 mRNA expression | 4.30 | 4.52 | 996 | 13.5 | 20.8 | 3.80 | 3.80
> 100 | 78 | 68.6 | 45 |  | CCc1cc(Br)cc2c3c([nH]c12)C(CC)(CCO)OCC3 (stereo not drawn) [Compound 47, 2-(6-BROMO-1,8-DIETHYL-1,3,4,9-TETRAHYDRO-PYRANO[3,4-b]INDOL-1-YL)-ETHANOL] |  |  | 4.68 | 5.52 | 802 | 16 | 21.5 | 4.85 | 4.22
